Test system: adult T. muris
Experiment: Ex vivo adult T. muris automated motility assay (primary/secondary screen at 100 μM and dose-response)
Set-up: species or system Trichuris muris
Conditions: for PRIMARY_SCREEN_MINUS_LOG_FOLD_CHANGE_MOVEMENT: primary screen
Description: Severe combined immune deficiency (SCID) mice were bred in the Biological Services Facility at the University of Manchester. Both male and female SCID mice were infected with a high dose of 200 infective embryonated T. muris eggs via oral gavage. At day 35 post-infection, groups of 5 mice were killed and their […] colons removed. Guts were opened longitudinally, washed with pre-warmed Roswell Park Memorial Institute (RPMI) 1640 media supplemented with penicillin (500U/ml) and streptomycin (500μg/ml) and adult T. muris worms gently removed using fine forceps. Worms removed from SCID mice were maintained in RPMI-1640 media supplemented with penicillin (500U/ml) and streptomycin (500μg/ml) at approximately 37°C and studied on the same day. Using fine forceps, individual live worms were placed into 96 well plates containing 75μl of RPMI-1640 medium supplemented with penicillin (500U/ml) and streptomycin (500μg/ml) plus 1% final concentration of DMSO or compound dissolved in DMSO. In the primary screen the test compound concentration was 100μM. Plates were then incubated at 37°C, 5% CO2, and motility was analysed after 24 hours. Worm movement was quantified using an automated motility assay. This system gives an estimate of worm movement in each well by thresholding and quantifying pixel intensity variance over time. An earlier version of this system has been previously described. One adult T. muris worm was used per well, with one well per compound in each replicate of the primary screen. The primary screen was repeated each week for a period of four weeks giving four independent biological replicates from separate parasite batches for each compound. Dose-response curves were calculated with the four factor log-logistic model using the R package drc. The primary screen was carried out at 100μM final concentration. Assay plates were assigned unique IDs and statistical analysis was performed without knowledge of compound identities using R scripts. Once hit wells were identified, well/plate positions were mapped to compound identities using DataWarrior [28]. […] Compounds identified as having encouraging activity from the DMSO solution samples were then resynthesized for confirmatory testing.

[1] = combined primary and secondary screen minus log fold change in movement, adult T. muris, 100 μM
[2] = adult T. muris motility, 100 μM
[3] = adult T. muris motility screen at 100 μM, combines primary and secondary screen minus log fold change in movement (mean where both are given)

Compound: COCCN1C(=O)COCc2ccc(-c3cccc(O)c3)cc21 [Compound 37]
- COMBINED_SCREEN_ACTIVITY [1]: -1.788
- PRIMARY_SCREEN_MINUS_LOG_FOLD_CHANGE_MOVEMENT [2]: -1.788

Compound: O=C1COCc2c(Br)cccc2N1Cc1ccccc1 [Compound 55]
- COMBINED_SCREEN_ACTIVITY [1]: 1.386
- PRIMARY_SCREEN_MINUS_LOG_FOLD_CHANGE_MOVEMENT [2]: 1.386

Compound: CC(=O)Nc1cccc(-c2ccc3c(c2)N(CCc2ccccc2)C(=O)COC3)c1 [Compound 164]
- COMBINED_SCREEN_ACTIVITY [1]: 1.82
- PRIMARY_SCREEN_MINUS_LOG_FOLD_CHANGE_MOVEMENT [2]: 1.82

Compound: O=C(O)c1cccc(-c2ccc3c(c2)N(CC2CC2)C(=O)COC3)c1 [Compound 62]
- COMBINED_SCREEN_ACTIVITY [1]: -1.551
- PRIMARY_SCREEN_MINUS_LOG_FOLD_CHANGE_MOVEMENT [2]: -1.551

Compound: COc1cccc(CN2C(=O)COCc3cc(-c4cccc(F)c4)ccc32)c1 [Compound 130]
- COMBINED_SCREEN_ACTIVITY [1]: 0.2069
- PRIMARY_SCREEN_MINUS_LOG_FOLD_CHANGE_MOVEMENT [2]: 0.2069

Compound: O=C1COCc2ccc(-c3ccc(Cl)cc3)cc2N1CC1CC1 [Compound 47]
- COMBINED_SCREEN_ACTIVITY [1]: 1.5592
- PRIMARY_SCREEN_MINUS_LOG_FOLD_CHANGE_MOVEMENT [2]: 1.5592

Compound: COCCN1C(=O)COCc2ccc(-c3ccccc3OC)cc21 [Compound 45]
- COMBINED_SCREEN_ACTIVITY [1]: -1.409
- PRIMARY_SCREEN_MINUS_LOG_FOLD_CHANGE_MOVEMENT [2]: -1.409

Compound: CN(C)C(=O)c1ccc(CN2C(=O)COCc3cc(-c4ccc5c(c4)OCO5)ccc32)cc1 [Compound 192]
- COMBINED_SCREEN_ACTIVITY [3]: 10.5493
- PRIMARY_SCREEN_MINUS_LOG_FOLD_CHANGE_MOVEMENT [2]: 10.5493

Compound: O=C1COCc2cc(Br)ccc2N1CC1CC1 [Compound 26]
- COMBINED_SCREEN_ACTIVITY [1]: -0.588
- PRIMARY_SCREEN_MINUS_LOG_FOLD_CHANGE_MOVEMENT [2]: -0.588

Compound: COc1ccc(-c2ccc3c(c2)N(CCc2ccccc2)C(=O)COC3)cc1OC [Compound 171]
- COMBINED_SCREEN_ACTIVITY [1]: 7.742
- PRIMARY_SCREEN_MINUS_LOG_FOLD_CHANGE_MOVEMENT [2]: 7.742

Compound: O=C1COCc2cc(-c3ccncc3)ccc2N1Cc1ccccc1 [Compound 52]
- COMBINED_SCREEN_ACTIVITY [1]: 0.9757
- PRIMARY_SCREEN_MINUS_LOG_FOLD_CHANGE_MOVEMENT [2]: 0.9757

Compound: COc1cc(F)ccc1-c1ccc2c(c1)COCC(=O)N2CCN1CCOCC1 [Compound 161]
- COMBINED_SCREEN_ACTIVITY [1]: -1.617
- PRIMARY_SCREEN_MINUS_LOG_FOLD_CHANGE_MOVEMENT [2]: -1.617

Compound: COCc1cccc(-c2ccc3c(c2)N(CCN2CCOCC2)C(=O)COC3)c1 [Compound 158]
- COMBINED_SCREEN_ACTIVITY [1]: -1.5946
- PRIMARY_SCREEN_MINUS_LOG_FOLD_CHANGE_MOVEMENT [2]: -1.5946

Compound: Cc1ccc(-c2cccc3c2COCC(=O)N3C)cc1C [Compound 11]
- COMBINED_SCREEN_ACTIVITY [1]: -0.1315
- PRIMARY_SCREEN_MINUS_LOG_FOLD_CHANGE_MOVEMENT [2]: -0.1315

Compound: CC(=O)Nc1cccc(-c2ccc3c(c2)N(Cc2cc(F)cc(F)c2)C(=O)COC3)c1 [Compound 185]
- COMBINED_SCREEN_ACTIVITY [3]: 6.728
- PRIMARY_SCREEN_MINUS_LOG_FOLD_CHANGE_MOVEMENT [2]: 10.5493
- SECONDARY_SCREEN_MINUS_LOG_FOLD_CHANGE_MOVEMENT (secondary screen, adult T. muris motility, 100 μM): 2.906

Compound: Cn1cc(-c2ccc3c(c2)N(Cc2ccccc2)C(=O)COC3)cn1 [Compound 59]
- COMBINED_SCREEN_ACTIVITY [1]: -0.5338
- PRIMARY_SCREEN_MINUS_LOG_FOLD_CHANGE_MOVEMENT [2]: -0.5338

Compound: O=C1COCc2cc(-c3cccnc3)ccc2N1CCc1ccccc1 [Compound 73]
- COMBINED_SCREEN_ACTIVITY [1]: 3.006
- PRIMARY_SCREEN_MINUS_LOG_FOLD_CHANGE_MOVEMENT [2]: 3.006

Compound: O=C1COCc2ccc(-c3cc(F)cc(F)c3)cc2N1CC1CC1 [Compound 48]
- COMBINED_SCREEN_ACTIVITY [1]: 1.875
- PRIMARY_SCREEN_MINUS_LOG_FOLD_CHANGE_MOVEMENT [2]: 1.875

Compound: O=C1COCc2cc(Br)ccc2N1Cc1ccccc1 [Compound 54]
- COMBINED_SCREEN_ACTIVITY [1]: 0.1915
- PRIMARY_SCREEN_MINUS_LOG_FOLD_CHANGE_MOVEMENT [2]: 0.1915

Compound: CC(C)N1C(=O)COCc2ccc(-c3ccccc3)cc21 [Compound 12]
- COMBINED_SCREEN_ACTIVITY [1]: 1.691
- PRIMARY_SCREEN_MINUS_LOG_FOLD_CHANGE_MOVEMENT [2]: 1.691

Compound: O=C1COCc2cc(-c3cccc(O)c3)ccc2N1CCc1ccccc1 [Compound 97]
- COMBINED_SCREEN_ACTIVITY [1]: -0.7944
- PRIMARY_SCREEN_MINUS_LOG_FOLD_CHANGE_MOVEMENT [2]: -0.7944

Compound: COc1ccc(-c2ccc3c(c2)N(CC2CC2)C(=O)COC3)cn1 [Compound 44]
- COMBINED_SCREEN_ACTIVITY [1]: -1.021
- PRIMARY_SCREEN_MINUS_LOG_FOLD_CHANGE_MOVEMENT [2]: -1.021

Compound: O=C1COCc2ccc(-c3ccc(F)c(Cl)c3)cc2N1CCN1CCOCC1 [Compound 175]
- COMBINED_SCREEN_ACTIVITY [1]: 0.9531
- PRIMARY_SCREEN_MINUS_LOG_FOLD_CHANGE_MOVEMENT [2]: 0.9531

Compound: CN1C(=O)COCc2c(-c3cccc(O)c3)cccc21 [Compound 9]
- COMBINED_SCREEN_ACTIVITY [1]: -1.134
- PRIMARY_SCREEN_MINUS_LOG_FOLD_CHANGE_MOVEMENT [2]: -1.134

From article PMC5321434, “Dihydrobenz[e][1,4]oxazepin-2(3H)-ones, a new anthelmintic chemotype immobilising whipworm and reducing infectivity in vivo” (PLoS Neglected Tropical Diseases, 2017)
